# Test results: ChEMBL document CHEMBL1139292, “Tetrahydroisoquinoline amide substituted phenyl pyrazoles as selective Bcl-2 inhibitors” (Bioorg Med Chem Lett, 2009)
# Activity calls are given as the source filed them. The rule behind the calls is not given here.
# What was measured:
# [1] = molecular target: T1, Apoptosis regulator Bcl-2 (Homo sapiens, UniProt P10415); assay: Inhibition of GST fused Bcl-2 binding to biotinylated 26 mer Bak-BH3 peptide by HTRF-LANCE assay
# [2] = molecular target: T1, Apoptosis regulator Bcl-2; assay: Inhibition of GST fused Bcl-2 binding to biotinylated 16 mer Bak-BH3 peptide by HTRF-LANCE assay
# [3] = molecular target: Bcl-2-like protein 1 (Bcl-xL) (Homo sapiens) (UniProt Q07817); assay: Inhibition of GST fused Bcl-xL binding to biotinylated 26 mer Bak-BH3 peptide at 30 uM by HTRF-LANCE assay
# Sequence of Bcl-2-like protein 1 (Bcl-xL) (Homo sapiens) (Q07817 whole entry, looked up, the tested form may be a part): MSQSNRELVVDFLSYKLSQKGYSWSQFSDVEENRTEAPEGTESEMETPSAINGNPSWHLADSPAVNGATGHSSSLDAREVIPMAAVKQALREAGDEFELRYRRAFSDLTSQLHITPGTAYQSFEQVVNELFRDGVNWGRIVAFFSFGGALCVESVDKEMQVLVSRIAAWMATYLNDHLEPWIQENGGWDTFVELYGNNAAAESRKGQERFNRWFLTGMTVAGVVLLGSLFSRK
# [4] = molecular target: Bcl-2-like protein 1 (Bcl-xL) (Homo sapiens) (UniProt Q07817); assay: Inhibition of GST fused Bcl-xL binding to biotinylated 26 mer Bak-BH3 peptide at 10 uM by HTRF-LANCE assay
# [5] = molecular target: Bcl-2-like protein 1 (Bcl-xL) (Homo sapiens) (UniProt Q07817); assay: Inhibition of GST fused Bcl-xL binding to biotinylated 16 mer Bak-BH3 peptide at 30 uM by HTRF-LANCE assay
# [6] = molecular target: T1, Apoptosis regulator Bcl-2; conditions: 30 uM
# Description: Inhibition of GST fused Bcl-2 binding to biotinylated 16 mer Bak-BH3 peptide at 30 uM by HTRF-LANCE assay
# [7] = molecular target: T1, Apoptosis regulator Bcl-2; assay: Inhibition of GST fused Bcl-2 binding to biotinylated 26 mer Bak-BH3 peptide at 10 uM by HTRF-LANCE assay
# [8] = molecular target: Bcl-2-like protein 1 (Bcl-xL) (Homo sapiens) (UniProt Q07817); assay: Inhibition of GST fused Bcl-xL binding to biotinylated 16 mer Bak-BH3 peptide at 33 uM by HTRF-LANCE assay
# T1 sequence (P10415 whole entry, the tested form may be a part): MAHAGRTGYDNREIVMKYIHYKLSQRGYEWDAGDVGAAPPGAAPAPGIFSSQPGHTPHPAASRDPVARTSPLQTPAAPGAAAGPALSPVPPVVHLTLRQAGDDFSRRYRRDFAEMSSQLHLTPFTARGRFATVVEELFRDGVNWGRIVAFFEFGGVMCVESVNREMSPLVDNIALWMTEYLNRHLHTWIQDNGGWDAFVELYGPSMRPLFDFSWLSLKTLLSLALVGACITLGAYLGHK
IC50 [1] [nM],IC50 [2] [nM],SMILES,other results
270,40,CCCCN(CCCC)C(=O)c1nn(-c2ccc(NC(=O)Cc3ccccc3)cc2C(=O)N2CCc3ccccc3C2)c(C)c1Cl,
330,20,CCCCN(CCCC)C(=O)c1cc(C)n(-c2ccc(OCC(=O)c3ccccc3)cc2C(=O)N2CCc3ccccc3C2)n1,
600,,CCCCN(CCCC)C(=O)c1cc(C)n(-c2ccc(NC(=O)CSc3ccccc3)cc2C(=O)N2CCc3ccccc3C2)n1,
,110,Cc1cc(C(=O)N(c2ccccc2)c2ccccc2)nn1-c1ccccc1C(=O)N1Cc2ccccc2C[C@H]1C,
210,40,Cc1c(Br)c(C(=O)N(c2ccccc2)c2ccccc2)nn1-c1ccccc1C(=O)N1Cc2ccccc2C[C@H]1CO,inhibition [3]: 9%
130,40,CCCCN(CCCC)C(=O)c1nn(-c2ccc(NC(=O)COc3ccccc3)cc2C(=O)N2CCc3ccccc3C2)c(C)c1Cl,
,1400,Cc1cc(C(=O)N(c2ccccc2)C2CCCCC2)nn1-c1ccccc1C(=O)N1CCc2ccccc2C1,
,280,COC(=O)C[C@@H]1Cc2ccccc2CN1C(=O)c1ccccc1-n1nc(C(=O)N(c2ccccc2)c2ccccc2)cc1C,
380,,CCCCN(CCCC)C(=O)c1nn(-c2ccc(N)cc2C(=O)N2Cc3ccccc3C[C@H]2CN)c(C)c1Cl,
17300,3670,CCN(CC)C(=O)c1nn(-c2ccccc2C(=O)N2Cc3ccccc3C[C@H]2CO)c(C)c1Br,inhibition [4]: 14%
,50000,Cc1cc(C(=O)Nc2ccccc2)nn1-c1ccccc1C(=O)N1CCc2ccccc2C1,
,160,COC[C@@H]1Cc2ccccc2CN1C(=O)c1ccccc1-n1nc(C(=O)N(c2ccccc2)c2ccccc2)cc1C,
,140,CNC[C@@H]1Cc2ccccc2CN1C(=O)c1ccccc1-n1nc(C(=O)N(c2ccccc2)c2ccccc2)cc1C,
780,100,CCCCN(CCCC)C(=O)c1nn(-c2ccccc2C(=O)N2Cc3ccccc3C[C@H]2CO)c(C)c1Cl,
,190,Cc1cc(C(=O)N(c2ccccc2)c2ccccc2)nn1-c1ccccc1C(=O)N1Cc2ccccc2C[C@H]1CO,
,5610,CCOC(=O)[C@@H]1Cc2ccccc2CN1C(=O)c1ccccc1-n1nc(C(=O)N(c2ccccc2)c2ccccc2)cc1C,
480,50,Cc1c(Cl)c(C(=O)N(c2ccccc2)c2ccccc2)nn1-c1ccccc1C(=O)N1Cc2ccccc2C[C@H]1CO,inhibition [3]: 29%
,150,Cc1cc(C(=O)N(c2ccccc2)c2ccccc2)nn1-c1ccccc1C(=O)N1Cc2ccccc2C[C@H]1CN(C)C,
,,Cc1cc(C(=O)N(c2ccccc2)c2ccccc2)nn1-c1ccccc1C(=O)N1Cc2ccccc2C[C@@H]1C,inhibition [5]: 4%; inhibition [6]: 27%
,,Cc1c(Cl)c(C(=O)N(CC(F)(F)F)CC(F)(F)F)nn1-c1ccccc1C(=O)N1Cc2ccccc2C[C@H]1CO,inhibition [7]: 6%; inhibition [3]: 4%; inhibition [5]: 13%
160,20,CCCCN(CCCC)C(=O)c1nn(-c2ccccc2C(=O)N2Cc3ccccc3C[C@H]2CN)c(C)c1Cl,
,730,CC(=O)NC[C@@H]1Cc2ccccc2CN1C(=O)c1ccccc1-n1nc(C(=O)N(c2ccccc2)c2ccccc2)cc1C,
100,30,Cc1c(Cl)c(C(=O)N(c2ccccc2)c2ccccc2)nn1-c1ccccc1C(=O)N1Cc2ccccc2C[C@H]1CN,inhibition [3]: 28%
130,10,CCCCN(CCCC)C(=O)c1cc(C)n(-c2ccc(OCC(=O)O)cc2C(=O)N2CCc3ccccc3C2)n1,
510,,CCCCN(CCCC)C(=O)c1cc(C)n(-c2ccc(NC(=O)COc3ccccc3)cc2C(=O)N2CCc3ccccc3C2)n1,
,,Cc1cc(C(=O)N(C)Cc2ccccc2)nn1-c1ccccc1C(=O)N1CCc2ccccc2C1,Activity [2]: inactive
,,CCCCN(CCCC)C(=O)c1nn(-c2ccc(NS(=O)(=O)Cc3ccccc3)cc2C(=O)N2CCc3ccccc3C2)c(C)c1Cl,inhibition [4]: 19%
,110,Cc1cc(C(=O)N(c2ccccc2)c2ccccc2)nn1-c1ccccc1C(=O)N1Cc2ccccc2C[C@H]1CN,
,1500,Cc1cc(C(=O)N2CCc3ccccc3C2)nn1-c1ccccc1C(=O)N1CCc2ccccc2C1,
,1050,Cc1cc(C(=O)N(c2ccccc2)c2ccccc2)nn1-c1ccccc1C(=O)N1Cc2ccccc2C[C@H]1CNS(C)(=O)=O,inhibition [8]: 40%
